# Patent US10300004B2, “Cosmetic composition for preventing or ameliorating skin damage caused by ultraviolet light” (CUSKIN CO., LTD, priority 2015, dated 2019)
# Experiments:
# human epidermis = conditions: Placzek M et al. 2005; cited from earlier work
# [1] = tested on: matrix metalloproteinase 1 (MMP1); assay: RT-PCR of MMP1 mRNA in dermal fibroblasts; format: cell-based, Human
# Experimental: (§1) Total RNA of HDFs and HaCaT was extracted with Trizol reagent followed by reverse transcription to cDNA. The following oligonucleotides were used as primers: collagen type I [5′-[…]-3′ (SEQ ID NO: 1) and 5′-[…]-3′ (SEQ ID NO: 2)], MMP-1 [5′-[…]-3′ (SEQ ID NO: 3) and 5′-[…]-3′ (SEQ ID NO: 4)], and control GAPDH [5′-[…]-3′ (SEQ ID NO: 5) and 5′-[…]-3′ (SEQ ID NO: 6)]. PCR was carried out in a total volume of 30 μl for PCR amplification of cDNA that was reverse-transcribed from the total RNA. After initial denaturation at 95° C. for 5 minutes, amplification was performed in 35 cycles for 30 seconds at 95° C., 20 seconds at 54° C., and 30 seconds at 72° C. This was followed by a final extension at 72° C. for another 10 minutes. GAPDH mRNA level was used for sample standardization.
# HaCaT cells [2] = assay: Mitochondrial ROS generation assay (Mito-Sox) in HaCaT cells; format: cell-based, Human; conditions: UVB, MVE 1000 nM, p<0.01, FIG. 5b
# Experimental: (§2) Cellular ROS generation was measured using 2′,7′-dichlorodihydrofluorescein diacetate (DCF-DA, Molecular Probes, Eugene, Oreg., USA), as described previously (Hye Kim J et al., Stem cells 33: 542-556). Similarly, mitochondrial ROS (mtROS) generation was measured using Mito-Sox (Molecular Probes). Cells were seeded in 6-well plates in 0.2% FBS and cultured overnight. […] Each well was imaged every 10 minutes for 40 minutes under standard incubation conditions using an IncuCyte™ ZOOM microscope placed inside an incubator. Image-based analysis of fluorescence intensity was carried out using IncuCyte™ software (Essen Bioscience, MI, USA).
# fibroblasts [3] = assay: Mitochondrial ROS generation assay (Mito-Sox) in fibroblasts; format: cell-based, Human; conditions: UVB, MVE 1000 nM, p<0.01, FIG. 3b
# Experimental: as §2
# HaCaT cells [4] = assay: Cellular ROS generation assay (DCF-DA) in HaCaT cells; format: cell-based, Human; conditions: UVB, MVE 1000 nM, p<0.01, FIG. 5a
# Experimental: as §2
# collagen = assay: Western blot of collagen protein in fibroblasts; format: cell-based, Human; conditions: FIG. 2C
# Experimental: (§3) Cells (2×10^5 cells/ml) were seeded in a 60 mm dish and cultured to 80% confluence. Cells were treated with MVE. Cells were then lysed with 1×RIPA buffer (50 mM Tris-HCl, 0.15 M NaCl, 1 mM EDTA, 1% Triton-X100, pH 7.4, 1% SDS, 50 mM NaF, 1 mM Na3VO4, 5 mM Dithiothreitol, 1 mg/ml Leupeptin, and 1 mM phenylmethylsulfonyl fluoride). Sample protein (40 μg) was separated in 10-12% SDS-polyacrylamide gels by electrophoresis. Proteins were transferred to PVDF membranes and incubated with antibodies to collagen (1:1000 rabbit source, Santa Cruz Biotechnology, Santa Cruz, Calif., USA) and matrix metalloproteinase 1 (MMP1, 1:1000 rabbit source, Santa Cruz Biotechnology). Membranes were then washed and incubated with horseradish peroxidase-conjugated anti-rabbit IgG antibody (Santa Cruz Biotechnology). Blots were reacted with western reagent (ECL; Millipore Billerica, Ann Arbor, Mass., USA) and exposed to X-ray film.
# [5] = tested on: Human dermal fibroblasts (HDFs); assay: MTT proliferation assay in dermal fibroblasts; format: cell-based; conditions: 100~1000 nM; p<0.01; FIG. 1B
# Experimental: (§4) Human dermal fibroblasts (HDFs) and immortalized keratinocyte cell line (HaCaT) were cultured using DMEM (low, high glucose, Hyclone, Thermo Scientific, Logan, Utah, USA) supplemented with 10% FBS (Gibco, Invitrogen, Carlsbad, Calif., USA), 1% penicillin, and streptomycin (Gibco) at 37° C. with 5% CO2 in a humidified atmosphere (Kim W S et al., (2009) Journal of dermatological science 53: 96-102). Said cultures were performed by exchanging with fresh media every two days.
# (§5) HDFs (3×10^4 cells/well) and HaCaT (4×10^4 cells/well) were seeded in 6-well plates. Cells were treated with various concentrations of MVE. Cells were then incubated for 48 hours and the MTT assay was performed. MTT solution (5 mg/ml in phosphate buffered saline) was added to each well at 1/20 of the media volume, incubated for 2 hours, and then supernatant was removed. Dimethyl sulfoxide (DMSO) was then added to dissolve formazan crystals, and the absorbance was measured at 595 nm using an ELISA reader (TECAN, Grodig, Austria).
# HaCaT cells [6] = assay: MTT proliferation assay in HaCaT cells; format: cell-based, Human; conditions: dose-dependent; p<0.05; FIG. 4A
# Experimental: as §4, §5
# [7] = tested on: matrix metalloproteinase 1 (MMP1); assay: Western blot of MMP1 protein in fibroblasts; format: cell-based, Human; conditions: FIG. 2C
# Experimental: as §3
# collagen type I = assay: RT-PCR of collagen mRNA in dermal fibroblasts; format: cell-based, Human
# Experimental: as §1
# fibroblasts [8] = assay: Cellular ROS generation assay (DCF-DA) in fibroblasts; format: cell-based, Human; conditions: UVB, MVE 1000 nM, p<0.01, FIG. 3a
# Experimental: as §2
# p53 = p53 protein levels in HaCaT cells after UVB; format: cell-based, Human; conditions: FIG. 4C
# [9] = tested on: Human dermal fibroblasts (HDFs); assay: MTT viability of dermal fibroblasts under UVB irradiation; format: cell-based
# Experimental: as §4, §5
# HaCaT cells [10] = assay: MTT viability of HaCaT cells under UVB; format: cell-based, Human; conditions: p<0.01, FIG. 4B
# Experimental: as §4, §5
# HaCaT keratinocytes = conditions: Shibata A et al. 2010; cited from earlier work
# [11] = dermal fibroblasts, no UVB, FIG. 2A
compound,measurement,setting,value
Cc1c(C)c2c(c(C)c1O)CC[C@@](C)(CCC[C@H](C)CCC[C@H](C)CCCC(C)C)O2 [D-alpha-tocopherol],UVB-induced DNA damage,human epidermis,prevented
Cc1c(C)c2c(c(C)c1O)CCC(C)(CC[P+](c1ccccc1)(c1ccccc1)c1ccccc1)O2.[Br-] (centres unmarked) [MVE],MMP1 mRNA expression,[1]; [11],down-regulated
same,mRNA level of MMP1 increased by UVB,"[1]; fibroblasts with UVB, FIG. 2B",reduced
same,mitochondrial ROS production: signal intensity of mito-Sox,HaCaT cells [2],reduced
same,mitochondria ROS production: signal intensity of mito-Sox,fibroblasts [3],reduced
same,cytosolic ROS level: fluorescent signal intensity of DCF-DA,HaCaT cells [4],attenuated
same,protein level of collagen,collagen,altered
same,fibroblast proliferation,[5],increased
same,proliferation of HaCaT cells,HaCaT cells [6],significantly increased
same,protein level of MMP1,[7],altered
same,collagen mRNA expression,collagen type I; [11],increased
same,mRNA level of collagen reduced by UVB irradiation,"collagen type I; fibroblasts with UVB, FIG. 2B",attenuated
same,cytosolic ROS level: fluorescent signal intensity of DCF-DA,fibroblasts [8],attenuated
same,UVB-induced p53 protein levels,p53,reduced
same,protection of fibroblasts from UVB,"[9]; 10~1000 nM, p<0.01, FIG. 1C",protected
same,"fibroblast survival (UVB irradiation), low concentrations","[9]; UVB 200 mJ, 0.1 and 1 μM, concentration-dependent, FIG. 1A",increased
same,"fibroblast survival (UVB irradiation), high concentrations","[9]; UVB 200 mJ, 10 to 100 μM, concentration-dependent, FIG. 1A",decreased
same,UVB-reduced cell viability,HaCaT cells [10],increased
CC(C)=CCC/C(C)=C/CC/C(C)=C/CC[C@]1(C)CCc2cc(O)c(C)c(C)c2O1 [γ-tocotrienol],protection from UVB induced inflammation,HaCaT keratinocytes,protected
vitamin E [reference compound],survival of dermal fibroblasts from UVB irradiation,"[9]; UVB 200 mJ, 0.1 to 100 μM, FIG. 1A",slightly increased
